Data published in patent EP4076478B1, “COMPOSITION AND METHOD FOR THE TREATMENT OF TYPE I DIABETES” (Vector Vitale IP LLC, priority 2019, dated 2021).

Test: Accumulation of metals in liver and kidney tissues after intraperitoneal administration
Assay type: in vivo, rats
Settings: day 1 and day 7 after discontinuation of the substances

zinc in the kidney and liver tissues: significantly increased
Structure (SMILES): CC(=O)[O-].CC(=O)[O-].[Zn+2] [Zn acetate, Zn(CH3COO)2]
